Assay results reported in US7445892B2, “Method of testing anticancer agent-sensitivity of tumor cells” (Eisai Co., Ltd., priority 2000, dated 2008).

What was measured:
Type in all cases: cell-based, human
LX-1-E2 = experiment: Gene expression analysis by quantitative PCR; details: resistant strain LX-1-E2, 8 μM, 0-12 hours, FIG. 5
Protocol: (§1) Similarly, E7070 was added to the media of an E7070-susceptible strain LX-1 and an E7070-resistant strain LX-1-E2 at a concentration of 8 μM and the cells were cultured. Cells were recovered after 0, 3, 6 and 12 hours. Total RNA was extracted from these cells and subjected to the subsequent analyses. LX-1 (Cancer Chemotherapy Center, Japan Foundation for Cancer Research, Tokyo, Japan) was a cell strain derived from human parvicellular lung cancer, and LX-1-E2 is an E7070-resistant substrain obtained by culturing this LX-1 in the presence of E7070 with gradually increasing the E7070 concentration. In order to confirm that variations in gene expression obtained in Example 2 reflected the susceptibility of a tumor cell to E7070, changes of gene expression in E7070-susceptible cells and E7070-resistant cells were examined by quantitative PCR using RNA shown in Example 1, SYBR Green and ABI Prism 7700 Sequence Detection System (Perkin-Elmer Applied Biosystems). […] The mRNA level in each specimen was quantified by measuring fluorescence intensity. In comparison of two or more specimens, quantitative values were corrected based on the mRNA level of GAPDH in each specimen. The relationships between the drug treatment time and each mRNA level are shown in FIGS. 2 to 5, where the quantified value at 0 hour after the drug treatment was used as a control (100%).

LX-1 = experiment: Gene expression analysis by quantitative PCR; details: susceptible strain LX-1, 8 μM, 0-12 hours, FIG. 3
Protocol: as §1

MOLT-4 = experiment: Gene expression analysis using GeneChip in three kinds of cancers; details: MOLT-4, 8 μM for 12 hours
Protocol: (§2) Gene expression changes in three kinds of cancers of HCT116-C9 (human colon cancer cell strain), MDA-MB-435 (human breast cancer cell strain) and MOLT-4 (human T lymphoblastic leukemia cell strain) caused by E7070 (treated with 8 μM for 12 hours) were examined by using GeneChip in the same manner as in Example 2. A list of the genes of which expression was enhanced 1.8 times or more in common in the three kinds of cancers is shown in Table 3. Further, a list of the genes of which expression was inhibited 1.8 times or more in common in the three kinds of cancers is shown in Table 4. Since the genes of which expression varies (enhanced or reduced) in common in these strains of the three kinds of cancers established from cancer patients with totally different genetic backgrounds are very likely to be more closely associated with the E7070 antitumor action mechanism common to the tumor cells, it is considered that they can be used as valid markers when susceptibility of a tumor cell to E7070 and its related compounds is tested.

MDA-MB-435 = experiment: as above; details: MDA-MB-435, 8 μM for 12 hours
Protocol: as §2

NS(=O)(=O)c1ccc(S(=O)(=O)Nc2cccc3c(Cl)c[nH]c23)cc1 [E7070, N-(3-chloro-7-indolyl)-1,4-benzenedisulfonamide]
mRNA level variation of S80343, U07919, U11791, M95809, U18291, U63743, M61764 (corrected by GAPDH) (LX-1-E2): U11791 showed an expression change and M95809 and U18291 showed a slight expression change | mRNA level variation of S80343, U07919, U11791, M95809, U18291, U63743, M61764 (corrected by GAPDH) (LX-1): all the genes except for S80343 showed expression variations | enhancement of expression of the genes listed in Table 3 (MOLT-4): ≥ 1.8 times | inhibition of expression of the genes listed in Table 4 (MOLT-4): ≥ 1.8 times | enhancement of expression of the genes listed in Table 3 (MDA-MB-435): ≥ 1.8 times | inhibition of expression of the genes listed in Table 4 (MDA-MB-435): ≥ 1.8 times
